Laboratory results as given in patent publication US12150926B2 (SICHUAN JIUZHANG BIOLOGICAL SCIENCE AND TECHNOLOGY CO., LTD., priority 2018, dated 2024).

Assays:
[1] = test system: transplanted tumor in S180 sarcoma-bearing KM mice; assay: In vivo inhibitory effect of chlorogenic acid composition on S180 sarcoma transplantation in KM mice (Experimental example 2); parameters: species or system mouse; key to growth volume of transplanted tumor: tumor volume V=0.52×L×W² (long × shortest diameter²); conditions: for inhibitory effect on the growth volume of transplanted tumors (in words): at different time points, compared with negative control group, i.p. once a day, 30 mg/kg (ADM 2 mg/kg); for Tumor inhibition rate / growth volume of transplanted tumor / Tumor weight: intraperitoneally, once a day; for Tumor inhibition rate: from tumor weight vs negative group; for growth volume of transplanted tumor: x ± s, n = 10; for Tumor weight: at termination
Description: S180 sarcoma transplantation in KM mice
(§1) KM mice, half male and half female, weighing 17-24 g.
S180 cell lines were mouse sarcoma cells, and suspendedly grew in DH medium, containing 20% calf serum, 1 mmol/L glutamine, 100 U·ml^−1 penicillin, and 100 μg·ml^−1 streptomycin, then cultured in 37° C., 5% CO2, saturated humidity incubator. The medium was changed every 2-3 days for passage.
(§2) S180 cells in the logarithmic growth phase were harvested, centrifuged at 1000 rpm for 5 min, washed twice, and the number of viable cells was counted by trypan blue staining. The cells were inoculated into the abdominal cavity of KM mice as soon as possible, and these mice were used as breeding mice.
The ascites was extracted from 7 to 10 days, and the number of cells was adjusted to (about 1×10^6 cells) after dilution. The cell suspension in ascites was inoculated subcutaneously in the axillary of the left forelimb of the mice at 0.2 ml/animal. […] Coumaroylquinic acid group: intraperitoneally injected, once a day, at a dose of 30 mg·kg^−1.
Negative group: intraperitoneally injected, once a day, receiving an equal volume of normal saline.
(§3) On the 5th day after inoculation, the tumor volume was measured (V=0.52×L (the long diameter of the transplanted tumor)×W^2 (the shortest diameter of the transplanted tumor)), and the mice were weighed every three days. The experiment was terminated when the average tumor size in the negative group was more than 1 g (the tumor volume was about 0.5 cm^3). The mice were sacrificed by cervical vertebra luxation and weighed, the tumor was removed, and the tumor inhibitory rate was calculated. Tumor inhibitory rate %=[1−(average tumor weight in drug group/average tumor weight in negative group)]×100%.

[2] = test system: transplanted tumor in S180 sarcoma-bearing KM mice; assay: In vivo inhibitory effect of chlorogenic acid on S180 sarcoma transplantation in KM mice (Experimental example 1); parameters: species or system mouse; key to growth volume of transplanted tumor: V = 0.52 × L × W² (long × shortest diameter²), in cm³; conditions: for growth volume of transplanted tumor: x ± s, n = 10; for inhibitory effect on the growth volume of transplanted tumors (in words): at different time points, compared with negative control group, chlorogenic acid systemic, local and systemic+local groups 30 mg/kg, ADM 2 mg/kg; for Tumor weight: at termination; for Tumor inhibiton rate: from tumor weight vs negative group
Description: as §1
S180 cell lines were mouse sarcoma cells, and suspendedly grew in DH medium, containing 20% calf serum, 1 mmol/L glutamine, 100 U·ml^−1 penicillin, and 100 μg·ml^−1 streptomycin, then cultured in 37° C. 5% CO2, saturated humidity incubator. The medium was changed every 2-3 days for passage.
as §2, with “mice. 2) In vivo experiment The ascites was extracted from 7 to 10 days, and the number of cells was adjusted to (about 1×10^6 cells) after dilution. The cell suspension in ascites was inoculated subcutaneously in the axillary of the left forelimb of the mice at 0.2 ml/animal.” for “mice.”
as §3, with “Negative group: intraperitoneally injected, once a day, receiving an equal volume of normal saline. On” for “On”

[3] = time after inoculation 74, 30 mg/kg
[4] = time after inoculation 134 [sic], 30 mg/kg
[5] = time after inoculation printed 94, 30 mg/kg
[6] = time after inoculation printed 114, 30 mg/kg
[7] = systemic + local administration: i.v. once a day 30 mg/kg plus s.c. peri-lesion once every 5 days 30 mg/kg

## O=C(/C=C/c1ccc(O)c(O)c1)O[C@@H]1C[C@](O)(C(=O)O)C[C@@H](O)[C@H]1O [Chlorogenic acid]
[1]
  inhibitory effect on the growth volume of transplanted tumors (in words): significant inhibitory effect
[1]; 30 mg/kg, 30 mg/kg
  Tumor inhibition rate: 48.64%
[1]; [3]
  growth volume of transplanted tumor: 0.242 ± 0.053
[1]; [4]
  growth volume of transplanted tumor: 0.811 ± 0.142
[1]; [5]
  growth volume of transplanted tumor: 0.326 ± 0.071
[1]; [6]
  growth volume of transplanted tumor: 0.453 ± 0.093
[2]; 5 d after inoculation, local administration: subcutaneously into periphery of in situ lesion, once a day, 30 mg/kg
  growth volume of transplanted tumor: 0.152 ± 0.028
[2]; 5 d after inoculation, systemic administration: intravenously, once a day, 30 mg/kg
  growth volume of transplanted tumor: 0.141 ± 0.032
[2]; 7 d after inoculation, local administration: subcutaneously into periphery of in situ lesion, once a day, 30 mg/kg
  growth volume of transplanted tumor: 0.221 ± 0.047
[2]; 7 d after inoculation, systemic + local administration: i.v. once a day 30 mg/kg plus s.c. peri-lesion once every 5 days 30 mg/kg
  growth volume of transplanted tumor: 0.186 ± 0.065
[2]; 7 d after inoculation, systemic administration: intravenously, once a day, 30 mg/kg
  growth volume of transplanted tumor: 0.205 ± 0.061
[2]; 9 d after inoculation, local administration: subcutaneously into periphery of in situ lesion, once a day, 30 mg/kg
  growth volume of transplanted tumor: 0.311 ± 0.064
[2]; 9 d after inoculation, systemic + local administration: i.v. once a day 30 mg/kg plus s.c. peri-lesion once every 5 days 30 mg/kg
  growth volume of transplanted tumor: 0.243 ± 0.066
[2]; 9 d after inoculation, systemic administration: intravenously, once a day, 30 mg/kg
  growth volume of transplanted tumor: 0.289 ± 0.082
[2]; 11 d after inoculation, local administration: subcutaneously into periphery of in situ lesion, once a day, 30 mg/kg
  growth volume of transplanted tumor: 0.535 ± 0.078
[2]; 11 d after inoculation, systemic + local administration: i.v. once a day 30 mg/kg plus s.c. peri-lesion once every 5 days 30 mg/kg
  growth volume of transplanted tumor: 0.344 ± 0.127
[2]; 11 d after inoculation, systemic administration: intravenously, once a day, 30 mg/kg
  growth volume of transplanted tumor: 0.504 ± 0.158
[2]; 13 d after inoculation, local administration: subcutaneously into periphery of in situ lesion, once a day, 30 mg/kg
  growth volume of transplanted tumor: 0.651 ± 0.154
[2]; 13 d after inoculation, systemic + local administration: i.v. once a day 30 mg/kg plus s.c. peri-lesion once every 5 days 30 mg/kg
  growth volume of transplanted tumor: 0.446 ± 0.157
[2]; 13 d after inoculation, systemic administration: intravenously, once a day, 30 mg/kg
  growth volume of transplanted tumor: 0.593 ± 0.213
[2]
  inhibitory effect on the growth volume of transplanted tumors (in words): significant inhibitory effect
[2]; local administration: s.c. peri-lesion, once a day, 30 mg/kg
  Tumor weight: 1.324 ± 0.239 g
[2]; local administration: s.c. peri-lesion, once a day, 30 mg/kg, 30 mg/kg
  Tumor inhibiton rate: 41.36%
[2]; [7]
  Tumor weight: 0.957 ± 0.308 g
  Tumor inhibiton rate: 57.62%
[2]; systemic administration: intravenously, once a day, 30 mg/kg
  Tumor weight: 1.183 ± 0.215 g
[2]; systemic administration: intravenously, once a day, 30 mg/kg, 30 mg/kg
  Tumor inhibiton rate: 47.61%
[2]; systemic+local administration group
  inhibitory effect on the growth volume compared with the systemic administration group and the local administration group (in words): better inhibitory effect

## COc1cccc2c1C(=O)c1c(O)c3c(c(O)c1C2=O)C[C@@](O)(C(=O)CO)C[C@@H]3O[C@H]1C[C@H](N)[C@H](O)[C@H](C)O1 [ADM, adriamycin, reference compound]
[1]
  inhibitory effect on the growth volume of transplanted tumors (in words): significant inhibitory effect
[1]; 2 mg/kg
  Tumor weight: 1.132 ± 0.552 g
[1]; 2 mg/kg, listed as Adriamycin (ADM), 2 mg/kg
  Tumor inhibition rate: 53.38%
[1]; time after inoculation 74, 2 mg/kg
  growth volume of transplanted tumor: 0.171 ± 0.082
[1]; time after inoculation 134 [sic], 2 mg/kg
  growth volume of transplanted tumor: 0.492 ± 0.204
[1]; time after inoculation printed 54, 2 mg/kg
  growth volume of transplanted tumor: 0.116 ± 0.073
[1]; time after inoculation printed 114, 2 mg/kg
  growth volume of transplanted tumor: 0.363 ± 0.128
[2]; 5 d after inoculation, intraperitoneally, once a day, 2 mg/kg
  growth volume of transplanted tumor: 0.096 ± 0.041
[2]; 9 d after inoculation, intraperitoneally, once a day, 2 mg/kg
  growth volume of transplanted tumor: 0.199 ± 0.080
[2]; 11 d after inoculation, intraperitoneally, once a day, 2 mg/kg
  growth volume of transplanted tumor: 0.333 ± 0.159
[2]; 13 d after inoculation, intraperitoneally, once a day, 2 mg/kg
  growth volume of transplanted tumor: 0.478 ± 0.241
[2]
  inhibitory effect on the growth volume of transplanted tumors (in words): significant inhibitory effect
[2]; intraperitoneally, once a day, 2 mg/kg, listed as Adriamycin (ADM), 2 mg/kg
  Tumor inhibiton rate: 56.95%

## coumaroylquinic acid
[1]
  inhibitory effect on the growth volume of transplanted tumors (in words): didn't show inhibitory effect
[1]; 30 mg/kg
  Tumor weight: 2.303 ± 0.475 g
[1]; 30 mg/kg, 30 mg/kg
  Tumor inhibition rate: 5.15%
[1]; 30 mg/kg, listed as coumaroylquinic acid, 30 mg/kg
  Tumor inhibition rate: 5%
[1]; [3]
  growth volume of transplanted tumor: 0.364 ± 0.074
[1]; [4]
  growth volume of transplanted tumor: 1.106 ± 0.137
[1]; time after inoculation printed 54, 30 mg/kg
  growth volume of transplanted tumor: 0.209 ± 0.058
[1]; [5]
  growth volume of transplanted tumor: 0.573 ± 0.093
[1]; [6]
  growth volume of transplanted tumor: 0.898 ± 0.075
